Source: PMC11117716 (Biomolecules, 2024)

Tests used:
[1] = test system: neurotoxic aggregating proteins; settings: cited from earlier work
[2] = test system: acetylcholinesterase; settings: cited from earlier work
[3] = in vivo; settings: CD-1, mouse; for T1/2 / Tmax / Tmax (time of Cmax) / Cmax: po; for Cmax: 65 mg/kg
Procedure: (§1) The animal PKs were taken from multiple GLP toxicology studies, biomarker studies, and efficacy studies. […] Sample size (n) represents the number of animals at each time point of sample collection. […] The dose volume was determined according to animals’ weight collected on the dosing day.
(§2) In mice, blood samples were collected via the saphenous vein or other suitable blood collection site into a microcentrifuge tube containing the anti-coagulant K2-EDTA on wet ice and processed for plasma. For samples collected within the first hour of dosing, ±1 min is acceptable, while for all other timepoints, samples were taken within 5% of the scheduled time and are not considered as protocol deviations. Plasma samples were centrifuged (3200× g for 10 min at 4 °C) within an hour of collection. CSF samples were collected with 3 μL volume per time point, frozen on dry ice, and stored at −60 °C for further analysis. For brain collection in mice, animals were euthanized using CO2 inhalation. Whole brain was collected, washed in cold saline, dried, and homogenized immediately […]. Homogenizing buffer MeOH/15 mM PBS (1:2, v:v) was used at a ratio of 1:9 (1 g of tissue with 9 mL of buffer; the dilution ratio is 10).
(§3) In humans, the bioanalytical method was performed in accordance with current FDA, Industry Guidelines, and OECD Principles. […] The sample analysis was conducted in accordance with current GCP and GLP principles, and the results were presented for pharmacokinetic profiling (Absorption Systems, Exton, PA, USA). Calibration ranges for each analyte ranged from 1000 ng/mL to 1 ng/mL (or ng/g for brain) in plasma, brain, and CSF matrices. The detection limit was 0.025 ng/mL. The following PK parameters were collected for the purpose of this manuscript: maximum concentration (Cmax), time to maximum drug concentration (Tmax), half-life (T1/2), and the Area Under the Curve (AUC).

[4] = Plasma pharmacokinetics after oral Posiphen in Sprague Dawley rats (LC-MS/MS); type: in vivo, rat
Procedure: (§4) In rats and dogs, blood samples were centrifuged, and the resultant plasma was separated, and 200 µL (rat) or 400 µL (dog) of plasma was transferred to uniquely labeled pre-chilled polypropylene tubes containing 5 µL (rat) or 10 µL (dog) Dichlorvos spiking solution (nominal concentration of 0.82 mg/mL in MeOH/Water, 20/80, v/v).
(§5) The detection limit was 0.025 ng/mL.

[5] = LogD; type: physicochemical
[6] = Plasma pharmacokinetics after oral Posiphen in CD-1 mice (LC-MS/MS); settings: for Mean plasma concentration: CD-1 mice, Posiphen 65 mg/kg
Procedure: as §1, §2, §3
Blood plasma samples were collected at various time points within the initial 8 h following administration (6 h for humans). Plasma concentrations (ng/mL) were measured over the 8 h observation window to characterize the maximum concentration (Cmax), the time to peak drug concentration (Tmax), the half-life (T1/2), and the Area Under the Curve (AUC).

[7] = Plasma pharmacokinetics after oral Posiphen in Beagle dogs (LC-MS/MS); design: species or system dog; settings: for Mean plasma concentration: Beagle dogs, Posiphen 20 mg/kg; for Tmax: dog plasma, Posiphen PO 20 mg/kg, n = 12
Procedure: as §4, §5

[8] = both sexes, Sprague Dawley, rat, in vivo, 40 mg/kg
[9] = both sexes, Sprague Dawley, rat, in vivo, po, 40 mg/kg
[10] = both, CD-1, mouse, in vivo, po, 65 mg/kg
[11] = both sexes, Beagle, dog, in vivo, po, 20 mg/kg

## CN1CC[C@]2(C)c3cc(OC(=O)Nc4ccccc4)ccc3N(C)C12.O=C(O)C(O)C(O)C(=O)O (stereo partly drawn) [Posiphen, (3aR)-1,3a, 8-trimethyl-1,2,3,3a, 8,8a-hexahydropyrrolo (2,3-b) indol-5-yl phenylcarbamate tartrate]
[1]
  TINAP activity: have TINAP
[2]
  Acetylcholinesterase inhibitory (AChEI) activity: no acetylcholinesterase inhibitory (AChEI) activity
[3]
  Kp: 5.04
  T1/2: 0.5 h
  Tmax: 0.74 h
  Tmax (time of Cmax): 0.5 h
  Cmax: 4740 ng/mL
[3]; in vivo
  Kp: 0.17
  T1/2: 0.5 h
  Tmax: 2.32 h
  Tmax (time of Cmax): 0.5 h
[3]; in vivo, Cmax
  Cmax: 163 ng/mL
[4]; [8]
  concentration at 0.25 h: 1090 ng/mL
  concentration at 1 h: 771 ng/mL
  concentration at 2 h: 381 ng/mL
  concentration at 4 h: 243 ng/mL
  concentration at 8 h: 234 ng/mL
[4]; [9]
  Cmax: 1180 ng/mL
  half-life: 1.03 h
[4]; both sexes, Sprague Dawley, rat, in vivo, po, 40 mg/kg, rat plasma, Posiphen PO 40 mg/kg, n = 6
  Tmax: < 1 h
[4]; both sexes, Sprague Dawley, rat, in vivo, po, 40 mg/kg, read-out: AUC (0–8 h)
  AUC(0-t): 1140 ng·h/mL
[4]; rat plasma
  Primary compound in plasma: primary compound
[5]
  logD: 2.2
[6]; 0.25 h
  Mean plasma concentration: 937 ng/mL
[6]; 0.5 h
  Mean plasma concentration: 939 ng/mL
[6]; 1 h
  Mean plasma concentration: 610 ng/mL
[6]; 2 h
  Mean plasma concentration: 571 ng/mL
[6]; 4 h
  Mean plasma concentration: 19.5 ng/mL
[6]; Table 2, mouse plasma, oral Posiphen
  AUC(0-t): 1707 ng·h/mL
[6]; [10]
  AUC(0-t): 1710 ng·h/mL
  Cmax: 939 ng/mL
[6]; both, CD-1, mouse, in vivo, po, 65 mg/kg, T1/2, mouse plasma, Posiphen PO 65 mg/kg, n = 7
  half-life: 0.56 h
[6]; both, CD-1, mouse, in vivo, po, 65 mg/kg, Tmax, mouse plasma, Posiphen PO 65 mg/kg, n = 7
  Tmax: < 1 h
[6]; mouse plasma, Posiphen PO 65 mg/kg, n = 7, 65 mg/kg
  T1/2: 0.562 h
[7]; 0.25 h
  Mean plasma concentration: 2.34 ng/mL
[7]; 0.5 h
  Mean plasma concentration: 241 ng/mL
[7]; 1 h
  Mean plasma concentration: 326 ng/mL
[7]; 2 h
  Mean plasma concentration: 203 ng/mL
[7]; 4 h
  Mean plasma concentration: 32.3 ng/mL
[7]; 8 h
  Mean plasma concentration: 4.4 ng/mL
[7]; 12 h
  Mean plasma concentration: 1.27 ng/mL
[7]; [11]
  Cmax: 402 ng/mL
  half-life: 1.96 h
[7]; both sexes, Beagle, dog, in vivo, po, 20 mg/kg, read-out: Tmax
  Tmax: 1 to 2 h
[7]; both sexes, Beagle, dog, in vivo, po, 20 mg/kg, read-out: AUC (0–8 h)
  AUC(0-t): 756 ng·h/mL
[7]; 20 mg/kg
  Tmax: 1.18 h
